Test results taken from patent publication US20120115955A1, “Methods for tumor treatment and adipogenesis differentiation” (Centro de Investigacion Principe Felipe, priority 2010, published 2012).
“Also recorded” adds a separate entry of the source.

Columns and labels:
[1] = test system: MALME-3M cells; assay: Nile-Red neutral lipid / LD quantification by flow cytometry (FL2); format: cell-based, human; conditions: 12 hours, vs DMSO control; for LD accumulation (Nile-RED): 100 μg/ml each fatty acid, except 10 μg/ml docosahexaenoic and arachidonic acid; for fold induction at 100 µg/mL: Homo sapiens, 100 μg/ml, read-out: generation of LDs, fold induction (Nile-RED FL2)
Method: FIG. 6. […] MALME-3M cells were cultured in the presence of 10 μg/ml of docosahexaenoic acid, 100 μg/ml of nervonic acid, 100 μg/ml of erucic acid, 10 μg/ml of arachidonic acid, 100 μg/ml of linolenic acid, 100 μg/ml of linoleic acid, 100 μg/ml of oleic acid, 100 μg/ml of palmitoleic acid, 100 μg/ml of elaidic acid, or 100 μg/ml petroselinic acid for 12 hours. Fatty acids were dissolved in DMSO; therefore the cells cultured with RPMI+10% FBS and treated with DMSO only were considered negative controls. The Nile-Red analysis was performed as described in the Material and Methods section. Quantification in the FL2 parameter was assessed by the FlowJo software. Fold induction was estimated by calculating the ratio between treated conditions and the untreated condition (control). The results are representative of three independent experiments.
(§1) Cells (10^5) were washed twice in PBS and then incubated with 25 μg/ml of Nile-Red (Invitrogen) in PBS (15 min, 4° C.). After incubation, cells were filtered through a 30 μm sieve (CellTrics, Partec). Fluorescent emission (525 nm) was registered in the FL2 channel by a Beckman Coulter Flow Cytometer (Cytomics™ FC 500). Data files were analyzed using the FlowJo flow cytometer analysis software.

[2] = test system: HCCLs (MALME-3M, MCF-7, SK-OV-3, HUH-7); assay: Flow cytometry FSC and SSC parameters of HCCLs; format: cell-based, human; conditions: mini-screen of unsaturated fatty acids associated with albumin; HUH-7, SK-OV-3, MCF-7, MALME-3M
[3] = test system: HUH-7 cells; format: cell-based
Method: as §1

## CCCCCCCC/C=C/CCCCCCCC(=O)O [elaidic acid, reference compound]
[1]
  LD accumulation (Nile-RED): LD accumulation was induced

## CCCCCCCC/C=C\CCCCCCCCCCCC(=O)O [erucic acid, reference compound]
[1]
  LD accumulation (Nile-RED): LD accumulation was induced

## CCCCCCC=CCCCCCCCC(=O)O [palmitoleic acid, hexadec-9-enoic acid]
[1]
  LD accumulation (Nile-RED): LD accumulation was induced
  fold induction at 100 µg/mL: ≥ 6
[2]
  modifications in the forward and side scatter parameters: remarkable modifications in the forward and side scatter parameters

## CCCCC/C=C\C/C=C\CCCCCCCC(=O)O [linoleic acid, cis, cis-9,12-octadecadienoic acid]
[3]
  LD accumulation by single fatty acid: triggers LD accumulation
[1]
  LD accumulation (Nile-RED): triggers LD accumulation; also recorded: LD accumulation was induced
  fold induction at 100 µg/mL: ≥ 6
[2]
  modifications in the forward and side scatter parameters: remarkable modifications in the forward and side scatter parameters

## CCCCCCCC/C=C\CCCCCCCC(=O)O [oleic acid, (9Z)-Octadec-9-enoic acid]
[1]
  LD accumulation (Nile-RED): LD accumulation was induced
  fold induction at 100 µg/mL: ≥ 6
[2]
  modifications in the forward and side scatter parameters: remarkable modifications in the forward and side scatter parameters

## CCCCCCCCCCC/C=C\CCCCC(=O)O [petroselinic acid, cis-6-octadecenoic]
[1]
  LD accumulation (Nile-RED): LD accumulation was induced
  fold induction at 100 µg/mL: ≥ 6
